A word on the pKd: it is the negative decadic logarithm of the Kd, by convention in mol/L. One may read the pIC50 as the IC50 on a negative log10 scale, so that one unit is a factor of ten. Read a low pIC50 as a large IC50.

pIC50, pKd: −log10 of the molar value. “Also recorded” adds a separate entry of the source. Bounds are passed on as bounds.

We go through 2 compounds from US12466813B2, “PRC1 inhibitors and methods of treatment therewith” (The Regents of the University of Michigan, priority 2018, dated 2025).

Assay [1] deals with T1, RING1B-BMI1 (Homo sapiens, UniProt Q99496).
T1 sequence (Q99496 1-336): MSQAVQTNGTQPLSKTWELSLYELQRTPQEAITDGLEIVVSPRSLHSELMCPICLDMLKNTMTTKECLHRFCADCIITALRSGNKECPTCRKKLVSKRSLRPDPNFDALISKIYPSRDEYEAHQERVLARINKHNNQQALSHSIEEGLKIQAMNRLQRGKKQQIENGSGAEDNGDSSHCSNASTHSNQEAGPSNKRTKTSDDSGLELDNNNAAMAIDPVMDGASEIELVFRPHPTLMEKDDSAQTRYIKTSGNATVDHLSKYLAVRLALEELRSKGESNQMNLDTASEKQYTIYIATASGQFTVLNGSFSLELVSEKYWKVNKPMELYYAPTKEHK
T1 sequence (P35226 1-326 partner): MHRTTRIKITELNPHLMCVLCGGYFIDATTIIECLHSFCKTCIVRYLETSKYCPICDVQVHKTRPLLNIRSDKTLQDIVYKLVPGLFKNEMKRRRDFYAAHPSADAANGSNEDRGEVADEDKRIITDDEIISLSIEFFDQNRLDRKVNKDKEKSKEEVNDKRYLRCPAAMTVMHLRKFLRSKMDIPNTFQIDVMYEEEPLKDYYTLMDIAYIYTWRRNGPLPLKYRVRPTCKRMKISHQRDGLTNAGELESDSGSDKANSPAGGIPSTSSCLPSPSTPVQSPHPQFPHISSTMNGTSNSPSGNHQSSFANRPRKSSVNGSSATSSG
Description: ITC binding of COMPOUND 1 to RING1B-BMI1. On the procedure:
FIG. 1. […] A. structure of COMPOUND 1. B. ITC experiments showing the binding of COMPOUND 1 to RING1B-BMI1. C. Assigned NMR spectrum of RING1B-BMI1 with DMSO and COMPOUND 1 in 1-2 molar ratio.
(§1) Experiments were conducted during development of embodiments herein to develop small molecule inhibitors of PRC1 by targeting the Ring1B-BMI1 E3 ligase. These compounds bind directly to Ring1B-Bmi1 with low-micromolar affinity and inhibit PRC1 in vitro and in cells. […] Experiments were conducted during development of embodiments herein to test COMPOUND 1 in leukemia stem cell models represented by TEX cells (Ref. 22; herein incorporated by reference in its entirety) and M9-ENL1 cells (Ref. 23; herein incorporated by reference in its entirety). […] In some embodiments, COMPOUND 1 and COMPOUND 1 analogs are find use as agents in targeting leukemia and other cancer stem cells.

Assay [2] deals with T1, RING1B-BMI1. The assay is described as follows: KD classes of Table A (direct binding to Ring1B-Bmi1). The note with it: class given in Table A.
The target in assay [3] is T1, RING1B-BMI1. The assay is described as follows: RING1B-BMI1 E3 ligase (H2Aub) activity in vitro. Type of assay: biochemical. On the procedure:
(§2) FIG. 2. COMPOUND 1 inhibits PRC1 in vitro. […] C.
as §1

In another assay the target is T2, RING1B-PCGF1 (Homo sapiens, UniProt Q99496).
T2 sequence (Q99496 1-336): T1 sequence (Q99496 1-336)
T2 sequence (Q9BSM1 1-259 partner): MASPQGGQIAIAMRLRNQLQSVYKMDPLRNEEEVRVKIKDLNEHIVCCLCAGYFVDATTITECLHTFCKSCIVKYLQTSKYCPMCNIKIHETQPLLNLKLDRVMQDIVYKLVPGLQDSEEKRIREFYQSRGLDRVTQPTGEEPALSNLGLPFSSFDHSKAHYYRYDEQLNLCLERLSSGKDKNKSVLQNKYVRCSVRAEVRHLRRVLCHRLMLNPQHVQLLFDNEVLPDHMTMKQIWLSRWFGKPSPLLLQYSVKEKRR
The assay is described as follows: RING1B-PCGF1 E3 ligase activity in vitro. Type of assay: biochemical. The note with it: FIG. 2B.
Description: as §2

The target of another assay is BRCA1-BARD1 (Homo sapiens, UniProt P38398+Q99728). The assay is described as follows: BRCA1-BARD1 E3 ligase selectivity. Type of assay: biochemical. The conditions noted are these: FIG. 2. The method, then: as §2, §1
The target of the next assay is T3, TRIM37 (Homo sapiens, UniProt O94972).
T3 sequence (O94972 1-964): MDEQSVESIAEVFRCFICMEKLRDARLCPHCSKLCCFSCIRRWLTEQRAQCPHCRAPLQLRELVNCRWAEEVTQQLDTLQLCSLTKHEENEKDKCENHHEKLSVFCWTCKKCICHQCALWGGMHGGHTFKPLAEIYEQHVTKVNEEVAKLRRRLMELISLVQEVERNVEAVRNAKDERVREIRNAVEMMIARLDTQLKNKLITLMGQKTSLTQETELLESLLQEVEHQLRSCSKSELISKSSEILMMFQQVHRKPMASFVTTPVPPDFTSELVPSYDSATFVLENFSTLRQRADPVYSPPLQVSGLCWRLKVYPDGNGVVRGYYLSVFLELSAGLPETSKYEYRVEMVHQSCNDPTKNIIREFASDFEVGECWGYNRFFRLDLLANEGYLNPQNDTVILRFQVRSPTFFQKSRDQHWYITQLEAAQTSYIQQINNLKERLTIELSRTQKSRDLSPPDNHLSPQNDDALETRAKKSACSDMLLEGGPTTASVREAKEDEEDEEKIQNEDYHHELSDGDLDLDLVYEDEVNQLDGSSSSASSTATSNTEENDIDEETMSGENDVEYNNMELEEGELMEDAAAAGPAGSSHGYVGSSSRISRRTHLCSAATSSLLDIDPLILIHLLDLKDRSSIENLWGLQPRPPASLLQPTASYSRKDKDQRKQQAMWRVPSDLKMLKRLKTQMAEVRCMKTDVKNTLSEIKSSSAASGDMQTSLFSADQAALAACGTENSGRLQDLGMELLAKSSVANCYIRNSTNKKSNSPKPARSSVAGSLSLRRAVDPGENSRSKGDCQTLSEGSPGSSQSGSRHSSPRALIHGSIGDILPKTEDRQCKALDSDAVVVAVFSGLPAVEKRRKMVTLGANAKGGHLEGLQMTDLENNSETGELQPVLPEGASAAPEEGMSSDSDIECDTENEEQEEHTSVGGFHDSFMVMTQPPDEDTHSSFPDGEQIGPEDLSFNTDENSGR
The assay is described as follows: TRIM37 E3 ligase selectivity. Type of assay: biochemical. The conditions noted are these: FIG. 2. The method, then:
as §2, §1

For assay [4], the target named is T4, RING1B-BMI1 interaction with nucleosome (Homo sapiens, UniProt Q99496).
T4 sequence (Q99496 1-336): T1 sequence (Q99496 1-336)
T4 sequence (P35226 1-326 partner): T1 sequence (P35226 1-326 partner)
Description: EMSA assay, RING1B-BMI1 interaction with nucleosome. Type of assay: binding. The note with it: FIG. 2D.
Description: as §2
In general terms: A gel shift assay detects complexes by their altered migration in electrophoresis.

Assay [5] relates to PRC1 complex in leukemia K562 cells. Description: H2Aub level / PRC1 activity in K562 cells. Type of assay: cell-based. The note with it: FIG. 3. On the procedure: FIG. 3. COMPOUND 1 inhibits PRC1 in K562 cells. Knockdown of BMI1 and RING1B in K562 cells results in decrease in H2Aub.
as §1

A further assay concerns H2Aub in TEX cells. The assay is described as follows: H2Aub, RNA-seq and ChIP-seq in TEX cells. The conditions noted are these: FIG. 4. Type of assay: cell-based. The method, then: (§3) FIGS. 4A-F. COMPOUND 1 inhibits PRC1 in TEX cells. FIG. 4A. Inhibition of H2Aub in TEX cells. FIG. 4B. Differentiation of TEX cells upon treatment with COMPOUND 1. […] FIG. 4C. GSEA analysis of TEX cells showing revers of stem cell signature. FIG. 4D. […] FIG. 4E. Gene expression changes upon treatment with COMPOUND 1. FIG. 4F.
as §1

The test system of a further assay is TEX cells. The assay is described as follows: Differentiation and CD34 marker of TEX cells. Type of assay: cell-based. The note with it: FIG. 4. On the procedure: as §3, §1
Assay [6] has as its system M9-ENL1 cells. The assay is described as follows: Colony formation of M9-ENL1 cells. The conditions noted are these: FIG. 5. Type of assay: cell-based. The method, then: as §1
Assay [7] concerns M9-ENL1 cells. Description: Transplantation of treated M9-ENL1 cells into mice. Type of assay: in vivo. The conditions noted are these: then transplanted into mice, FIG. 5. On the procedure:
as §1

A further assay deals with primary AML samples. The assay is described as follows: Primary AML samples: H2Aub, colony formation, CD34. Type of assay: cell-based. The note with it: FIG. 6.

BRCA1-BARD1, sequence (P38398 whole entry): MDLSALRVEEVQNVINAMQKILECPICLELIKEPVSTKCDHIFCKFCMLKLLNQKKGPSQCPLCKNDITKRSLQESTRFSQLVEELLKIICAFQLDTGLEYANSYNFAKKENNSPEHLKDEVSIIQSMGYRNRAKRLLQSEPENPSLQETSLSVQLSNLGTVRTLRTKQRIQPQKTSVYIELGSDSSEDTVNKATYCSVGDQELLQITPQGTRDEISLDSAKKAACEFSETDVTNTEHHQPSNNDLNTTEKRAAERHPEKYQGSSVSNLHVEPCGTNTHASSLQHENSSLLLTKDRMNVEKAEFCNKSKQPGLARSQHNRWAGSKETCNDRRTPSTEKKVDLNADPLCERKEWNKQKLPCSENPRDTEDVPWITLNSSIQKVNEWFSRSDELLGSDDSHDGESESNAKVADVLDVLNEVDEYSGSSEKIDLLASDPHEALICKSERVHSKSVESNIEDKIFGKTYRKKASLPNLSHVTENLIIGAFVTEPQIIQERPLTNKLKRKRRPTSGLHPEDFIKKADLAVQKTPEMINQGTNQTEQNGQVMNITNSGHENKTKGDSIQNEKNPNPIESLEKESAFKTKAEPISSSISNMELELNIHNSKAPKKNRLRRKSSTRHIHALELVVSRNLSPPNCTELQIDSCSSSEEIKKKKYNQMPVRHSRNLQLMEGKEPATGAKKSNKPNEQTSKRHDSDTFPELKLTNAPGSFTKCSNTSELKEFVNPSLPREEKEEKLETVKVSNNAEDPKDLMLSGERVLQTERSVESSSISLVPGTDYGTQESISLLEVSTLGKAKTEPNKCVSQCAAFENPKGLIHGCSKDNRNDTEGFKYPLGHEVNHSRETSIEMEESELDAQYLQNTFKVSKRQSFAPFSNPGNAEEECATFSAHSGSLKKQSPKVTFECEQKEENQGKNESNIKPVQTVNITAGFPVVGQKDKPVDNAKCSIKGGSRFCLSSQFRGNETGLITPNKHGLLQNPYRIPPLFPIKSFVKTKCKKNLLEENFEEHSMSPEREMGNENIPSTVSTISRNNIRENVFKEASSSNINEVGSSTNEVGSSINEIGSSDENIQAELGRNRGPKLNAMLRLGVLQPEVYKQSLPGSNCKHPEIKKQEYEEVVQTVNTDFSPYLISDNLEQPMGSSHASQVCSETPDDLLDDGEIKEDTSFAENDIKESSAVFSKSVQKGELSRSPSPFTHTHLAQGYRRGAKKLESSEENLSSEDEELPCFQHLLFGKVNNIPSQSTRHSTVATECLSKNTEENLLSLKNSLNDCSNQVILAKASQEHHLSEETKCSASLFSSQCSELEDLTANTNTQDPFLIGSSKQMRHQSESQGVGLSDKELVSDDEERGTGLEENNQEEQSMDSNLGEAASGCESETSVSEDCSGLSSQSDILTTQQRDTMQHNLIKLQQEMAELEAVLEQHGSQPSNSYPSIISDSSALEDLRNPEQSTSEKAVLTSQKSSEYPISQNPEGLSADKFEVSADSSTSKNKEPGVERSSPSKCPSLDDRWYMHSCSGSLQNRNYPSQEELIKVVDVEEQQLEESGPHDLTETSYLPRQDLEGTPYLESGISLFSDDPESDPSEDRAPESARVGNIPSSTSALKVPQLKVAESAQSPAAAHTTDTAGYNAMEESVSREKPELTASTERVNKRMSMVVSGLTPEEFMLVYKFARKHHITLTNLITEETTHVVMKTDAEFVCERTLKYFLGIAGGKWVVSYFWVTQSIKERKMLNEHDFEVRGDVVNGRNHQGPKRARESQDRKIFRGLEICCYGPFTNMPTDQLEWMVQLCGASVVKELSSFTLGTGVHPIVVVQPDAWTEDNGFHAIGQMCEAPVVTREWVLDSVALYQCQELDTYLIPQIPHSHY
BRCA1-BARD1, sequence (Q99728 whole entry): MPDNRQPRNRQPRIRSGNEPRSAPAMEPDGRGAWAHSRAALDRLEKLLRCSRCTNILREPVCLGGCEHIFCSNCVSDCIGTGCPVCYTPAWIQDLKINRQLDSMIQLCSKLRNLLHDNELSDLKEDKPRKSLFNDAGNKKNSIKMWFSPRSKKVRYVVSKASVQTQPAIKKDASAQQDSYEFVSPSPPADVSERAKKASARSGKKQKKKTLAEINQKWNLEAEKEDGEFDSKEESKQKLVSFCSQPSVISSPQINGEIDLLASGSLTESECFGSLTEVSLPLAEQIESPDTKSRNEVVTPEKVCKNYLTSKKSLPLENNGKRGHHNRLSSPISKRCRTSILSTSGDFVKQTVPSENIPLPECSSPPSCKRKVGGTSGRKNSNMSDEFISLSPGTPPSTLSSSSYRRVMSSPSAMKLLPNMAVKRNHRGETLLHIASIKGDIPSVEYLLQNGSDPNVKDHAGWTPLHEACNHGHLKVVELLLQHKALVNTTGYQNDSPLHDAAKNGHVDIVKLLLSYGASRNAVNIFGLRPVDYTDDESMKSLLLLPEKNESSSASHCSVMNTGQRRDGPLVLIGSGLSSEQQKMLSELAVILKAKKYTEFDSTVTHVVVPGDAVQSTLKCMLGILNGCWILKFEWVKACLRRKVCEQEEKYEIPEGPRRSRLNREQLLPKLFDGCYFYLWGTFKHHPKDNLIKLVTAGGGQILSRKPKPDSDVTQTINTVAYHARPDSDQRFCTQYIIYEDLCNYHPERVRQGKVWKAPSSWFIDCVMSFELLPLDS

For `CC(C)c1c(-c2cccc3[nH]ccc23)[nH]c(C(=O)O)c1-c1c(Cl)ccc2[nH]ccc12` [COMPOUND 1, 3-(5-Chloro-1H-indol-4-yl)-5-(1H-indol-4-yl)-4-isopropyl-1H-pyrrole-2-carboxylic acid], on RING1B-BMI1 [1] (ITC and NMR, FIG. 1), the “binding to RING1B-BMI1” value was “binds to RING1B-BMI1”. The pKd at RING1B-BMI1 [1] (binds directly to Ring1B-Bmi1, FIG. 1) is 5.59. Moreover, the pKd at RING1B-BMI1 [2] is > 4.70. Further, at RING1B-BMI1 [3] (FIG. 2), the pIC50 was ~5.70. For the same compound, the “RING1B-BMI1 H2Aub activity” value on RING1B-BMI1 [3] (in vitro, FIG. 2A) is recorded as “inhibits RING1B-BMI1 H2Aub activity”. Also, the RING1B-PCGF1 activity result at RING1B-PCGF1 was “inhibits RING1B-PCGF1 activity”. In addition, the “inhibition of BRCA1-BARD1 E3 ligase” value against BRCA1-BARD1 was “does not inhibit”. In addition, at TRIM37, the “inhibition of TRIM37 E3 ligase” value is reported as “does not inhibit”. Further, the “RING1B-BMI1 interaction with nucleosome” value in [4] was “inhibits RINIG1B-BMI1 interaction with nucleosome”. Further, the “PRC1 activity / H2Aub level in K562 cells” value in assay [5] is given as “blocks the activity of PRC1 complex; also recorded: decreases H2Aub level”. Moreover, in the assay with H2Aub in TEX cells, the “H2Aub in TEX cells” value is recorded as “inhibits H2Aub”, the “global H2Aub (ChIP-seq)” value is reported as “global decrease in H2Aub” and the “leukemia stem cell signature (RNA-seq)” value is given as “reversing leukemia stem cell signature”. In addition, in the assay on TEX cells, the “differentiation of TEX cells” value is recorded as “induces differentiation” and the “stem cell marker CD34” value was “loss of stem cell marker CD34”. Moreover, in the assay with M9-ENL1 cells [6], the “colony formation of M9-ENL1 cells” value is recorded as “effective in blocking colony formation”. Also, in the assay with M9-ENL1 cells [7], the “engraftment and leukemia development” value was “strongly decreases engraftment and leukemia development”. Further, in the assay with primary AML samples, the “H2Aub in primary AML samples” value is given as “decreases H2Aub”; the “colony formation, primary AML samples” value is recorded as “inhibits colony formation”; the “stem cell marker CD34, primary AML samples” value is reported as “decrease stem sell marker CD34”.

Turning to `CCc1c(-c2cccc3c2ccn3CCO)[nH]c(C(=O)O)c1-c1ccc(OC)cc1Cl` [COMPOUND 103], the pKd at RING1B-BMI1 [2] was < 4.00. Also, the “differentiation of TEX cells” value with TEX cells was “does not induce differentiation”.
